What is called EC50 is the concentration at which the effect is half-maximal.

In US11773094B2, “Farnesoid X receptor agonists and uses thereof” (Metacrine, Inc., priority 2018, dated 2023) one finds EC50 data, which are given here for 15 compounds.

Where only a bound is given, the exact number is not on record here.

The experiment has as its target T1, hFXR (Homo sapiens, UniProt Q96RI1).
T1 construct: expressed in transfected cells; host or cells: CV-1 cells
T1 sequence (Q96RI1 1-486): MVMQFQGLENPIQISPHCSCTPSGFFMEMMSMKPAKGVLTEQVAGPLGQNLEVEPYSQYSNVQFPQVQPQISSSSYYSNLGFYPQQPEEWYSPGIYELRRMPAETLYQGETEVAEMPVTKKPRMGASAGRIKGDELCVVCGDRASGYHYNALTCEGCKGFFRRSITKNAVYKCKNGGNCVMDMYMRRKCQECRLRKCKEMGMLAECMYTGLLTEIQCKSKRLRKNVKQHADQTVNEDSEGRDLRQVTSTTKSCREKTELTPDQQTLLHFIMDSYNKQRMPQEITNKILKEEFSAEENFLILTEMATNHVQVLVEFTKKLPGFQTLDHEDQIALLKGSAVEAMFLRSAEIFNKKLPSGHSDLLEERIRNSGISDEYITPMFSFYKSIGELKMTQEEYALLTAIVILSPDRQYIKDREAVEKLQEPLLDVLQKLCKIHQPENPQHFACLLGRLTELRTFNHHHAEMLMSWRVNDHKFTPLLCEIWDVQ
T1 sequence (P19793 1-462 partner): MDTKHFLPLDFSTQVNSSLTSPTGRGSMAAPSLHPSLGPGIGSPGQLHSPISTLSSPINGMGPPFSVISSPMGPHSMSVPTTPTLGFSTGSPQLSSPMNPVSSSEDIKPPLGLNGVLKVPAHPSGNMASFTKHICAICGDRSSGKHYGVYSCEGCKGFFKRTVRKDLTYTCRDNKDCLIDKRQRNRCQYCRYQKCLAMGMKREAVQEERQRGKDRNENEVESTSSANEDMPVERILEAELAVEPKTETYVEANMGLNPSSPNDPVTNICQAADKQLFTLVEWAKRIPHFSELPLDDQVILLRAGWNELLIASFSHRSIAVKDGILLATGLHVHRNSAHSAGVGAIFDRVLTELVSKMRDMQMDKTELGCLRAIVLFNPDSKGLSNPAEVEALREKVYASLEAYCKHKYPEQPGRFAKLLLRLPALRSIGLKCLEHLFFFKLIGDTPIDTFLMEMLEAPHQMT
Put plainly: In Vitro FXR Assay (TK): TK-ECRE-luc reporter in transfected CV-1 cells. The class given is cell-based. Particulars: CV-1 cells transfected with hFXR, hRXR, pCMX-YFP, 18 hrs incubation, luminescence. The gist of the method: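 CV-1 cells transiently cotransfected with hFXR, hRXR, TK-ECRE-luc reporter and pCMX-YFP plasmids in charcoal-stripped serum medium. Serially diluted compounds added for 18 h at 37° C., then cells lysed and luciferase luminescence measured.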
Compound `COc1ccc(C23CCC(CN(c4cc(-c5cnn(C(C)(C)C)c5)ccn4)C(=O)[C@H]4CC[C@H](OC(=O)NC5COC5)CC4)(CC2)CC3)cc1C` [Compound 2.28, 4-((4-(1-(tert-Butyl)-1H-pyrazol-4-yl)pyridin-2-yl)((4-(4-methoxy-3-methylphenyl)bicyclo[2.2.2]octan-1-yl)methyl)carbamoyl) (trans-cyclohexyl) oxetan-3-ylcarbamate] had an EC50 of no more than 10 nM.
The result for `COc1ccc([C@H]2CC[C@H](CN(c3cc(-c4cnc(C(C)(C)C)s4)ccn3)C(=O)[C@H]3CC[C@H](OC(=O)N4CC(O)C4(C)C)CC3)CC2)cc1C` (stereo partly drawn) [Compound 1.02, trans-4-((4-(2-(tert-Butyl)thiazol-5-yl)pyridin-2-yl)(((trans)-4-(4-methoxy-3-methylphenyl)cyclohexyl)methyl)carbamoyl) cyclohexyl 3-hydroxy-2,2-dimethylazetidine-1-carboxylate] reads 10 to 1000 nM; that for `COc1ccc(C23CCC(CN(c4cc(-c5cnc(C(C)(C)C)s5)ccn4)C(=O)[C@H]4CC[C@H](OC(=O)N5CC(OCCO)C5)CC4)(CC2)CC3)cc1C` [Compound 2.07, 4-((4-(2-(tert-Butyl)thiazol-5-yl)pyridin-2-yl)((4-(4-methoxy-3-methylphenyl)bicyclo[2.2.2]octan-1-yl)methyl)carbamoyl) (trans-cyclohexyl) 3-(2-hydroxyethoxy)azetidine-1-carboxylate], no more than 10 nM; that for `COc1ccc(C23CCC(CN(c4nccc(-c5cnn(C(C)(C)C)c5)n4)C(=O)[C@H]4CC[C@H](OC(=O)N5CC(O)C5)CC4)(CC2)CC3)cc1C` [Compound 3.14, 4-((4-(1-(tert-Butyl)-1H-pyrazol-4-yl)pyrimidin-2-yl)((4-(4-methoxy-3-methylphenyl)bicyclo[2.2.2]octan-1-yl)methyl)carbamoyl) (trans-cyclohexyl) 3-hydroxyazetidine-1-carboxylate], 10 to 1000 nM.
`COc1ccc(C23CCC(CN(c4cc(-c5cnn(C(C)(C)C)c5)ccn4)C(=O)[C@H]4CC[C@H](OC(=O)NC5CC[S+]([O-])CC5)CC4)(CC2)CC3)cc1C` (stereo partly drawn) [Compound 2.38, (1r,4r)-4-((4-(1-(tert-Butyl)-1H-pyrazol-4-yl)pyridin-2-yl)((4-(4-methoxy-3-methylphenyl)bicyclo[2.2.2]octan-1-yl)methyl)carbamoyl)cyclohexyl (1-oxidotetrahydro-2H-thiopyran-4-yl)carbamate] had an EC50 of 10 to 1000 nM.
Consider `COc1ccc(C23CCC(CN(c4cc(-c5cnc(C(C)(C)C)s5)ccn4)C(=O)[C@H]4CC[C@H](OC(=O)NC5CCOCC5)CC4)(CC2)CC3)cc1C` [Compound 3.09, 4-((4-(2-(tert-Butyl)thiazol-5-yl)pyridin-2-yl)((4-(4-methoxy-3-methylphenyl)bicyclo[2.2.2]octan-1-yl)methyl)carbamoyl) cyclohexyl (tetrahydro-2H-pyran-4-yl)trans-carbamate], for which the EC50 was 10 to 1000 nM.
On to `COc1ccc(C23CCC(CN(c4cncc(-c5cnn(C(C)(C)C)c5)c4)C(=O)[C@H]4CC[C@H](OC(=O)N5CC(O)C5)CC4)(CC2)CC3)cc1C` [Compound 1.14, 4-((5-(1-(tert-Butyl)-1H-pyrazol-4-yl)pyridin-3-yl)((4-(4-methoxy-3-methylphenyl)bicyclo[2.2.2]octan-1-yl)methyl)carbamoyl) (trans-cyclohexyl) 3-hydroxyazetidine-1-carboxylate], for which the EC50 is no more than 10 nM.
The result for `COc1ccc(C23CCC(CN(c4cc(-c5cnn(C(C)(C)C)c5)ccn4)C(=O)[C@H]4CC[C@H](OC(=O)N5CCC(O)C5)CC4)(CC2)CC3)cc1C` (stereo partly drawn) [Compound 3.03, 4-((4-(1-(tert-Butyl)-1H-pyrazol-4-yl)pyridin-2-yl)((4-(4-methoxy-3-methylphenyl)bicyclo[2.2.2]octan-1-yl)methyl)carbamoyl) (trans-cyclohexyl) 3-hydroxypyrrolidine-1-carboxylate] reads no more than 10 nM.
The result for `COc1ccc(C23CCC(CN(c4cc(-c5coc(C(C)(C)C)n5)ccn4)C(=O)[C@H]4CC[C@H](OC(=O)NCCCO)CC4)(CC2)CC3)cc1C` [Compound 2, 4-((4-(2-(tert-Butyl)oxazol-4-yl)pyridin-2-yl)((4-(4-methoxy-3-methylphenyl)bicyclo[2.2.2]octan-1-yl)methyl)carbamoyl) (trans-cyclohexyl) (3-hydroxypropyl)carbamate] reads no more than 10 nM.
The result for `COc1ccc(C23CCC(CN(c4cc(-c5coc(C(C)(C)C)n5)ccn4)C(=O)[C@H]4CC[C@H](OC(=O)NCCC(C)(C)O)CC4)(CC2)CC3)cc1C` [Compound 2.20, 4-((4-(2-(tert-Butyl)oxazol-4-yl)pyridin-2-yl)((4-(4-methoxy-3-methylphenyl)bicyclo[2.2.2]octan-1-yl)methyl)carbamoyl) (trans-cyclohexyl) (3-hydroxy-3-methylbutyl)carbamate] reads no more than 10 nM; that for `COc1ccc([C@]23CC[C@@](CN(c4cc(-c5cnn(C(C)(C)C)c5)ccn4)C(=O)[C@H]4CC[C@H](OC(=O)N5CC(CO)C5)CC4)(CC2)CC3)cc1C` [Compound 3.02, 4-((4-(1-(tert-Butyl)-1H-pyrazol-4-yl)pyridin-2-yl)(trans(4-(4-methoxy-3-methylphenyl)bicyclo[2.2.2]octan-1-yl)methyl)carbamoyl) (trans-cyclohexyl) 3-(hydroxymethyl)azetidine-1-carboxylate], no more than 10 nM.
On to `COc1ccc([C@H]2CC[C@H](CN(c3cc(-c4cnn(C(C)(C)C)c4)ccn3)C(=O)[C@H]3CC[C@H](OC(=O)N4CC(O)C4(C)C)CC3)CC2)cc1C` (stereo partly drawn) [Compound 1.09, trans-4-((4-(1-(tert-Butyl)-1H-pyrazol-4-yl)pyridin-2-yl)((trans-4-(4-methoxy-3-methylphenyl)cyclohexyl)methyl)carbamoyl) cyclohexyl 3-hydroxy-2,2-dimethylazetidine-1-carboxylate], for which the EC50 is no more than 10 nM.
The figure for `COc1ccc(C23CCC(CN(c4cc(-c5cnn(C(C)(C)C)c5)ccn4)C(=O)[C@H]4CC[C@H](OC(=O)N5CC(C)(O)C5)CC4)(CC2)CC3)cc1C` [Compound 2.22, 4-((4-(1-(tert-Butyl)-1H-pyrazol-4-yl)pyridin-2-yl)((4-(4-methoxy-3-methylphenyl)bicyclo[2.2.2]octan-1-yl)methyl)carbamoyl) (trans-cyclohexyl) 3-hydroxy-3-methylazetidine-1-carboxylate] is no more than 10 nM; for `COc1ccc(C23CCC(CN(c4cncc(-c5cnn(C(C)(C)C)c5)n4)C(=O)[C@H]4CC[C@H](OC(=O)N5CC(O)C5)CC4)(CC2)CC3)cc1C` [Compound 3.12, 4-((6-(1-(tert-Butyl)-1H-pyrazol-4-yl)pyrazin-2-yl)((4-(4-methoxy-3-methylphenyl)bicyclo[2.2.2]octan-1-yl)methyl)carbamoyl) (trans-cyclohexyl) 3-hydroxyazetidine-1-carboxylate] it is 10 to 1000 nM.
The result for `COc1ccc(C23CCC(CN(c4cc(-c5cnn(C(C)(C)C)c5)ccn4)C(=O)[C@H]4CC[C@H](OC(=O)NCCC(C)(C)O)CC4)(CC2)CC3)cc1C` [Compound 2.32, 4-((4-(1-(tert-Butyl)-1H-pyrazol-4-yl)pyridin-2-yl)((4-(4-methoxy-3-methylphenyl)bicyclo[2.2.2]octan-1-yl)methyl)carbamoyl) (trans-cyclohexyl) (3-hvdroxy-3-methylbutyl)carbamate] reads no more than 10 nM.
